Data set [1] has as its system primary mouse liver tumor cells. Nature of the data set: Western blot analysis of primary mouse liver tumor cells. Format: cell-based. The conditions noted are these: 10 μM for 24 hr (FIG. 65). How it is done: Briefly, a liver from a mouse was removed and washed in 1×PBS. The tumor tissue was resected from the liver and transferred to 5 mL PBS/2% FBS. The tumor tissue was minced with fine sterile scissors into fragments, followed by addition of 5 mL pre-warmed 2 mg/mL collagenase type IV/dispase. After incubated for 30 min at 37° C., the tumor cells were filtered through a 70 μm cell strainer and spined at 1,000 rpm for 5 min at 4° C. The pellet containing the liver tumor cells was then resuspended in 5 mL of 1×RBC lysis buffer and incubated on ice for 5 min. The tumor cells were spined and washed by 1×PBS/2% FBS for 2-3 times. Finally, the tumor cells were resuspended with DMEM (10% FBS, 40 ng/mL EGF, 0.008 ng/mL IGF-II) and plated in culture dishes that were pre-coated with collagen.
(In general: Immunoblotting shows a protein as a band on a membrane.)

Data set [2] concerns primary human hepatocellular carcinoma cells. Description: Western blot analysis of primary hepatic carcinoma cells from a liver cancer patient. Format: cell-based. The note with it: 10 μM for 48 hr (FIG. 63). On the procedure: Tissue samples were obtained by surgical resection and processed within 2 hr. Chen et al., Oncotarget 2016, 7, 17047-59. Samples were washed with 1×SC-2 solution, minced with fine sterile scissors and scalpel into fragments of ˜1 mm^3. They were then treated with pre-warmed collagenase type IV for 30 min at 37° C. and filtered through a 70 μm cell strainer. The pellet containing the liver cells was resuspended in ice cold SC-2 solution and triple centrifugation at 1,000 g for 10 min at 4° C. was performed in order to separate the purified hepatocyte population (pellet) from non-parenchymal cells (supernatant). The pellet contained the purified hepatocytes. The resolved single-cell suspensions were then re-suspended in a primary cell culture medium (DMEM, 20% FBS, 2 mM glutamine, 1 mM pyruvate, 10 mM HEPES, 100 units/mL penicillin/streptomycin, 0.1 mg/mL gentamicin, and […] fungizone), plated in 6-well plates coated with 5 μg/cm^2 rat tail collagen type I and maintained in culture at 37° C. and 5% CO2.

Another data set relates to HepG2 xenografts. Nature of the data set: HepG2 xenografts in nude mice. In kind it is in vivo, mouse. On the procedure:
FIGS. 69 and 70 show the analysis of nude mice injected with HepG2 cells, where the mice were treated with compound A1 (80 mg/kg) once every two days. The tumor volume was monitored and recorded. Tumors excised at day 14 were shown in FIG. 69 and weight in FIG. 70 (±SEM; **p<0.01).
BALB/c nude mice (7-8 weeks old) were injected subcutaneously with 100 μL HepG2 cells (2×10^6). For treatment, mice were administered with compound A1 (80 mg/kg) diluted in corn oil once every two days. Body weights and tumor sizes were measured every 2 days with tumor volumes (V) calculated by the formula of (width)^2×length/2. The mice were sacrificed after 14 days of treatment and tumors were removed for additional assessments. Isolation and culture of mouse primary liver tumor cells
Livers or transplanted tumor from mouse were fixed in 4% neutral buffered formalin phosphate (pH 7.0) for periods not exceeding 24 hr and were subsequently embedded in paraffin. They were sliced into 4-μm sections for H&E (hematoxylin and eosin) staining, immunofluorescence and for immunohistochemistry. To examine hepatocytes, H&E stained-liver sections were analyzed with an image analysis system. For immunostaining, liver sections or tumor sections were incubated with an anti-γ-tubulin (1:200 dilution), anti-pS10-H3 (1:200 dilution), anti-γ-H2AX (1:200 dilution), or cleaved-caspase-3 (1:100 dilution) antibody. Positive cells or areas were counted and measured, respectively, for at least 10 fields.

Data set [3] has as its system HepG2 cells. Nature of the data set: Western blot analysis of liver cancer HepG2 cells. In kind it is cell-based, human. The note with it: indicated concentration for 12 hr (FIG. 61).
For the next data set, the system named is HeLa cells. Nature of the data set: Asynchronous or thymidine-synchronized HeLa cells incubated with compound A1. Format: cell-based, human. How it is done:
Cells were synchronized at GUS boundary by a double thymidine block. Briefly, cells cultured in a medium containing 2 mM thymidine for 16 hr were released into a normal medium for 8 hr, subjected to a second thymidine block for 16 hr, and then released into a fresh medium again. Alternatively, cells were synchronized at prometaphase by a thymidine-nocodazole arrest (an 18-hr thymidine arrest and a 5-hr release, followed by a 5-hr 100 ng/mL nocodazole arrest).

In data set [4] the test system is HepG2 cells. Description: Centrosome immunofluorescence in metaphase HepG2 cells. Format: cell-based, human. How it is done: Cells mounted on glass slides were fixed with methanol at −20° C. for 10 min, then permeabilized with 0.05% Triton X-100 in a PBS buffer for 8 min at 4° C., and blocked with 1% bovine serum in PBS for 30 min at room temperature, followed by incubation with primary antibodies at room temperature for 3 hr and detected by FITC-labeled anti-IgG (1:200), anti-goat IgG conjugated with Cy3 (1:200) at room temperature for 1 hr. The cells were costained with 40,6-diamidino-2-phenylindole (DAPI) (1:10,000 dilution) to visualize nuclei. The images were taken under a LEICA TCS SP8 confocal laser scanning microscope system or an LSM-510 confocal laser scanning microscope system.

In the next data set the test system is cancer cells. Nature of the data set: Mitotic progression of cancer cells (FACS analysis). Format: cell-based. On the set-up: inhibitory effect on mitotic progression: RXRα dependence and other cancer cell lines (FACS): dose or concentration left out as unconfirmed. On the procedure: Cells were harvested by trypsin digestion, washed with PBS, and fixed with ice-cold 70% ethanol overnight at 4° C. The fixed cells were then washed twice in PBS and treated for 10 min at room temperature with 0.5 μg/mL 4-6-diamidino-2-phenylindole (DAPI) in PBS and analyzed on a FACSCAN™ flow cytometer. Flow cytometry data were analyzed using CYTEXPERT.

On to `COc1ccc(CC(=O)N/N=C/c2c(O)ccc3ccccc23)cc1` [Compound A1, (E)-N′-((2-hydroxynaphthalen-1-yl)methylene)-2-(4-methoxyphenyl)acetohydrazide], for which the “G2/M arrest, DNA damage response, and apoptosis” value in data set [1] (primary liver cancer cells) was “induced G2/M arrest, DNA damage response, and apoptosis”. Further, the “induction of mitotic arrest and apoptosis” value in data set [1] (primary mouse liver tumor cells) and in data set [2] was “observed” each time. For the same compound, the “effects of compound A1 in normal liver tissues” value in the data set on HepG2 xenografts (normal liver tissues of HepG2 xenograft mice (FIG. 71)) is listed as “not observed in normal liver tissues”. In addition, the “mitotic arrest and DNA damage response in normal tissues” value with HepG2 xenografts (normal tissues of kidney, intestine, spleen, and heart) is reported as “no effect”. Moreover, the “signs of overt toxicities” value in the data set with HepG2 xenografts (nude mice, 80 mg/kg once every two days, 14 days) is recorded as “without any signs of overt toxicities”. The “growth of HepG2 tumor” value in the data set on HepG2 xenografts (nude mice, subcutaneous HepG2 xenografts, 80 mg/kg in corn oil once every two days, 14 days (FIGS. 69 and 70)) is recorded as “strongly inhibited the growth of HepG2 tumor”. Moreover, the “mitotic arrest, chromosome aberrations, DNA damage response, and caspase 3 activation in tumor cells” value with HepG2 xenografts (tumor specimens from HepG2 xenograft (FIG. 71)) is “induction of mitotic arrest, chromosome aberrations, DNA damage response, and caspase 3 activation in tumor cells”. Moreover, in the data set on HepG2 cells [3], the “effect in p-RXRα-positive HepG2 liver cancer cells” value is “potent effect”. For the same compound, the “effectiveness in asynchronous versus synchronized cells” value in the data set on HeLa cells (HeLa cells, 10 μM for 24 hr (FIG. 64)) is listed as “more effective in asynchronous cells (AS) than in synchronized GUS cells”. Further, the “cell cycle progression and fate of synchronized HeLa cells upon treatment” value in the data set with HeLa cells (synchronized HeLa cells) was “progressed through S phase normally and arrested in mitotic phase, which was followed by apoptosis”. Moreover, the centrosomal aberrations entry in the data set with HepG2 cells [4] was “caused centrosomal aberrations”. In addition, the “level of PLK1-pT210 at the centrosome” value with HepG2 cells [4] (HepG2 cells, 10 μM for 2 hr after release from TT block for 10 hr (FIG. 57)) is “reduced the level of PLK1-pT210”. The “centrosome maturation (γ-tubulin at the centrosomes)” value with HepG2 cells [4] (HepG2 cells, 10 μM for 2 hr after release from TT block for 10 hr (FIG. 58)) is listed as “suppressed centrosome maturation”. Further, the “mitotic progression of cancer cells” value in the data set on cancer cells is on record as “inhibited mitotic progression of cancer cells”. Further, in the data set with cancer cells (indicated cell lines), the “inhibitory effect on mitotic progression: RXRα dependence and other cancer cell lines (FACS)” value is “RXRα dependent and observed in many other cancer cell lines”.

Source of the values: patent publication US20240034785A1, “RXR-ALPHA BINDERS AND RXR-ALPHA/PLK1 MODULATORS” (NUCMITO PHARMACEUTICALS CO. LTD., priority 2020, published 2024).
